Reference: US10815224B2, “Monocyclic heteroaryl substituted compounds” (Bristol-Myers Squibb Company, priority 2016, dated 2020)
Like-named read-outs stand apart in the source and are kept apart here.

Columns and labels:
PAR4 = biological target: T1, PAR4 (Homo sapiens, UniProt Q96RI0); test: PAR4 FLIPR assay: calcium mobilization in PAR4-expressing HEK293 cells; format: cell-based
T1 construct: expressed in transfected cells; host or cells: HEK293 PAR4 Clone 1.2A (BMS Arctic ID 383940)
T1 sequence (Q96RI0 18-385): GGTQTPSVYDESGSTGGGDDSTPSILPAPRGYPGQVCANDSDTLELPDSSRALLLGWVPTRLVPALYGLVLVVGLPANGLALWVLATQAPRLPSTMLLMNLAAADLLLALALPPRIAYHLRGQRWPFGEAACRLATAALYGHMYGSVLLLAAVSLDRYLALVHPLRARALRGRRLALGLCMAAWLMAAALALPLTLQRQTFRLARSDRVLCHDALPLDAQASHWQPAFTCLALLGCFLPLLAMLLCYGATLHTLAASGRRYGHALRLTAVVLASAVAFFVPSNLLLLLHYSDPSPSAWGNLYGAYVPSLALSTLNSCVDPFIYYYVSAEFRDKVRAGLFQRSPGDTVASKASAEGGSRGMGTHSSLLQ
Description: The FLIPR assay is an exemplary in vitro assay for measuring the activity of the PAR4 antagonists of the present invention. In this assay, intracellular calcium mobilization is induced in PAR4 expressing cells by a PAR4 agonist and calcium mobilization is monitored.
HEK293 cells stably expressing PAR4 were generated by a standard method of transfection of human PAR4 (F2R23) cDNA expression vector and selected based on PAR4 protein expression or mRNA expression. […] Therefore, the same cells were also used to determine selectivity against PAR1 and agonist activity for both receptors.
FLIPR-based calcium mobilization assay in HEK293 cells was used to measure PAR4 antagonism, agonism, and selectivity against PAR1. […] Counter screens for agonist activity and PAR1 antagonist activity were also performed. […] Cells were plated overnight prior to the experiment in a black 384-well Purecoat Amine clear bottom plate (Becton Dickinson Biosciences, San Jose, Calif.) at 10,000 cells/well in 30 μL growth medium and incubated in a humidified chamber at 37° C. with 5% CO2 overnight. Prior to compound addition, the cell medium was replaced with 40 μL of 1× calcium and magnesium-containing Hank's Balanced Saline Solution (HBSS) (with 20 mM HEPES) and 1:1000 diluted fluorescent calcium indicator (Codex Biosolutions, Gaithersburg, Md.). After a 30 minute incubation period at 37° C., and a further 30 minute incubation and equilibration period at room temperature, 20 μL test compound (diluted in 1×HBSS buffer) was added at various concentrations at 0.17% dimethyl sulfoxide (DMSO) final concentration. Changes in fluorescence intensity were measured using a Functional Drug Screening System (FDSS, Hamamatsu, Japan) to determine agonist activities. The cells were then incubated for 30 minutes at room temperature followed by addition of 20 μL of agonist peptide for antagonist activity measurement. […] Compound potency was derived from 11-point concentration-response curves.

[1] = biological target: T2, protease-activated receptor type 4 (PAR4) (Homo sapiens, UniProt Q96RI0); conditions: abstract of Lee et al. 2001; cited from earlier work
T2 sequence (Q96RI0 18-385): T1 sequence (Q96RI0 18-385)

ACS patients = conditions: TRACER phase III trial; cited from earlier work

Row | Compound | IC50 (PAR4) [nM] | other results
1 | Cc1cc(-c2ncc(-c3cccc4[nH]ccc34)s2)c2ncc(OC(F)F)nc2c1 [Example 38, 2-(2-(difluoromethoxy)-7-methylquinoxalin-5-yl)-5-(l H-indol-4-yl)thiazole] | 820 | –
2 | Cc1cc(-c2ncc(CO)s2)c2ncc(OC(F)F)nc2c1 [Example 39, (2-(2-(difluoromethoxy)-7-methylquinoxalin-5-yl)thiazol-5-yl)methanol] | 2000 | –
3 | Cc1cc(-c2ncc(-c3ccn[nH]3)s2)c2ncc(OC(F)F)nc2c1 [Example 40, 2-(2-(difluoromethoxy)-7-methylquinoxalin-5-yl)-5-(1H-pyrazol-5-yl)thiazole] | 23 | –
4 | Cc1cc(-c2nc(C(C)(C)C)cs2)c2ncc(OC(F)F)nc2c1 [Example 41] | – | IC50 (PAR4; HEK293 cells expressing human PAR4, calcium mobilization induced by H-Ala-Phe(4-F)-Pro-Gly-Trp-Leu-Val-Lys-Asn-Gly-NH2): 450 nM
5 | Cc1cc(-c2ncc(-c3ccc4cc[nH]c4c3)s2)c2ncc(OC(F)F)nc2c1 [Example 42, 2-(2-(difluoromethoxy)-7-methylquinoxalin-5-yl)-5-(1H-indol-6-yl)thiazole] | 81 | –
6 | Cc1cc(-c2ncc(-c3ccncc3)s2)c2ncc(OC(F)F)nc2c1 [Example 43, 2-(2-(difluoromethoxy)-7-methylquinoxalin-5-yl)-5-(pyridin-4-yl)thiazole] | 330 | –
7 | Cc1cc(-c2ncc(-c3ccccn3)s2)c2ncc(OC(F)F)nc2c1 [Example 44, 2-(2-(difluoromethoxy)-7-methylquinoxalin-5-yl)-5-(pyridin-2-yl)thiazole] | 79 | –
8 | COc1cnc2c(-c3ncc(-c4ccccc4C(F)F)s3)cc(C)cc2n1 [Example 45, 5-(2-(difluoromethyl)phenyl)-2-(2-methoxy-7-methylquinoxalin-5-yl)thiazole] | 25 | –
9 | COc1cnc2c(-c3ncc(-c4cc(O)c(F)c(F)c4)s3)cc(C)cc2n1 [Example 46, 2,3-difluoro-5-(2-(2-methoxy-7-methylquinoxalin-5-yl)thiazol-5-yl)phenol] | 14 | –
10 | COc1cnc2c(-c3nc(C(F)(F)F)c(C(=O)C4CCCCC4)s3)cc(C)cc2n1 [Example 47, Cyclohexyl(2-(2-methoxy-7-methylquinoxalin-5-yl)-4-(trifluoromethyl)thiazol-5-yl) methanone] | 53 | –
11 | CCOC(=O)c1ccc(-c2nn(Cc3ccccc3)c3ccccc23)cc1 [YD-3, ethyl 4-(1-benzyl-1H-indazol-3-yl)benzoate] | – | Inhibition of PAR4-dependent platelet activation [1]: selective and potent inhibitor
12 | CCOC(=O)N[C@@H]1CC[C@@H]2[C@@H](C1)C[C@H]1C(=O)O[C@H](C)[C@H]1[C@H]2/C=C/c1ccc(-c2cccc(F)c2)cn1 [vorapaxar] | – | Cardiovascular events (ACS patients): did not significantly reduce cardiovascular events; Risk of major bleeding (ACS patients): significantly increased the risk of major bleeding

Continued, in another order:

Row | IC50 (PAR4) [nM] | Compound | other results
13 | 3.1 | COCc1cnc2c(-c3ncc(-c4ccn[nH]4)s3)cc(C)cc2n1 [Example 48, 2-(2-(methoxymethyl)-7-methylquinoxalin-5-yl)-5-(1H-pyrazol-5-yl)thiazole] | –
14 | 19 | COCc1cnc2c(-c3ncc(-c4cccc(O)c4)s3)cc(C)cc2n1 [Example 49, 3-(2-(2-(methoxymethyl)-7-methylquinoxalin-5-yl)thiazol-5-yl)phenol] | –
15 | 5.7 | COCc1cnc2c(-c3ncc(-c4cc(F)ccc4O)s3)cc(C)cc2n1 [Example 50, 4-fluoro-2-(2-(2-(methoxymethyl)-7-methylquinoxalin-5-yl)thiazol-5-yl)phenol] | –
16 | 7.1 | Cc1cc(-c2ncc(-c3cccc(O)c3)s2)c2ncc(OC(F)F)nc2c1 [Example 51, 3-(2-(2-(difluoromethoxy)-7-methylquinoxalin-5-yl)thiazol-5-yl)phenol] | –
17 | 550 | COc1ccc(-c2cnc(-c3cc(C)cc4nc(OC)cnc34)s2)nc1 [Example 52, 2-(2-methoxy-7-methylquinoxalin-5-yl)-5-(5-methoxypyridin-2-yl)thiazole] | –
18 | 290 | COCc1cnc2c(-c3ncc(-c4ccc(OC)cn4)s3)cc(C)cc2n1 [Example 53, 2-(2-(methoxymethyl)-7-methylquinoxalin-5-yl)-5-(5-methoxypyridin-2-yl)thiazole] | –
